Results reported in patent US20230125667A1, “NOVEL TDZD ANALOGS AS AGENTS THAT DELAY, PREVENT, OR REVERSE AGE-ASSOCIATED DISEASES AND AS ANTI-CANCER AND ANTILEUKEMIC AGENTS” (United States Government as represented by the Department …, priority 2020, published 2023).
Like-named read-outs stand apart in the source and are kept apart here.

What was measured:
CCRF-CEM = experiment: NCI-60 growth inhibition: CCRF-CEM (Leukemia); type: cell-based, human; details: Homo sapiens
K-562 = experiment: NCI-60 growth inhibition: K-562 (Leukemia); type: cell-based, human; details: Homo sapiens, K562
MOLT-4 = experiment: NCI-60 growth inhibition: MOLT-4 (Leukemia); type: cell-based, human; details: Homo sapiens
RPMI-8226 = experiment: NCI-60 growth inhibition: RPMI-8226 (Leukemia); type: cell-based, human; details: Homo sapiens
EKVX = experiment: NCI-60 growth inhibition: EKVX (Non-Small-Cell Lung Cancer); type: cell-based, human; details: Homo sapiens
HOP-92 = experiment: NCI-60 growth inhibition: HOP-92 (Non-Small-Cell Lung Cancer); type: cell-based, human; details: Homo sapiens
NCI-H23 = experiment: NCI-60 growth inhibition: NCI-H23 (Non-Small-Cell Lung Cancer); type: cell-based, human; details: Homo sapiens
NCI-H460 = experiment: NCI-60 growth inhibition: NCI-H460 (Non-Small-Cell Lung Cancer); type: cell-based, human; details: Homo sapiens
COLO 205 = experiment: NCI-60 growth inhibition: COLO 205 (Colon Cancer); type: cell-based, human; details: Homo sapiens
HCT-15 = experiment: NCI-60 growth inhibition: HCT-15 (Colon Cancer); type: cell-based, human; details: Homo sapiens
HT29 = experiment: NCI-60 growth inhibition: HT29 (Colon Cancer); type: cell-based, human; details: Homo sapiens, HT-29
SW-620 = experiment: NCI-60 growth inhibition: SW-620 (Colon Cancer); type: cell-based, human; details: Homo sapiens
SF-268 = experiment: NCI-60 growth inhibition: SF-268 (CNS Cancer); type: cell-based, human; details: Homo sapiens
SF-539 = experiment: NCI-60 growth inhibition: SF-539 (CNS Cancer); type: cell-based, human; details: Homo sapiens
SNB-19 = experiment: NCI-60 growth inhibition: SNB-19 (CNS Cancer); type: cell-based, human; details: Homo sapiens
SNB-75 = experiment: NCI-60 growth inhibition: SNB-75 (CNS Cancer); type: cell-based, human; details: Homo sapiens
LOX IMVI = experiment: NCI-60 growth inhibition: LOX IMVI (Melanoma); type: cell-based, human; details: Homo sapiens
MALME-3M = experiment: NCI-60 growth inhibition: MALME-3M (Melanoma); type: cell-based, human; details: Homo sapiens
M14 = experiment: NCI-60 growth inhibition: M14 (Melanoma); type: cell-based, human; details: Homo sapiens
MDA-MB-435 = experiment: NCI-60 growth inhibition: MDA-MB-435 (Melanoma); type: cell-based, human; details: Homo sapiens
SK-MEL-2 = experiment: NCI-60 growth inhibition: SK-MEL-2 (Melanoma); type: cell-based, human; details: Homo sapiens
SK-MEL-28 = experiment: NCI-60 growth inhibition: SK-MEL-28 (Melanoma); type: cell-based, human; details: Homo sapiens
SK-MEL-5 = experiment: NCI-60 growth inhibition: SK-MEL-5 (Melanoma); type: cell-based, human; details: Homo sapiens
UACC-257 = experiment: NCI-60 growth inhibition: UACC-257 (Melanoma); type: cell-based, human; details: Homo sapiens
UACC-62 = experiment: NCI-60 growth inhibition: UACC-62 (Melanoma); type: cell-based, human; details: Homo sapiens
IGROV1 = experiment: NCI-60 growth inhibition: IGROV1 (Ovarian Cancer); type: cell-based, human; details: Homo sapiens, IGROV-1
OVCAR-3 = experiment: NCI-60 growth inhibition: OVCAR-3 (Ovarian Cancer); type: cell-based, human; details: Homo sapiens
OVCAR-4 = experiment: NCI-60 growth inhibition: OVCAR-4 (Ovarian Cancer); type: cell-based, human; details: Homo sapiens
OVCAR-5 = experiment: NCI-60 growth inhibition: OVCAR-5 (Ovarian Cancer); type: cell-based, human; details: Homo sapiens
OVCAR-8 = experiment: NCI-60 growth inhibition: OVCAR-8 (Ovarian Cancer); type: cell-based, human; details: Homo sapiens
786-0 = experiment: NCI-60 growth inhibition: 786-0 (Renal Cancer); type: cell-based, human; details: Homo sapiens
A498 = experiment: NCI-60 growth inhibition: A498 (Renal Cancer); type: cell-based, human; details: Homo sapiens
ACHN = experiment: NCI-60 growth inhibition: ACHN (Renal Cancer); type: cell-based, human; details: Homo sapiens
CAKI-1 = experiment: NCI-60 growth inhibition: CAKI-1 (Renal Cancer); type: cell-based, human; details: Homo sapiens
RXF 393 = experiment: NCI-60 growth inhibition: RXF 393 (Renal Cancer); type: cell-based, human; details: Homo sapiens
SN12C = experiment: NCI-60 growth inhibition: SN12C (Renal Cancer); type: cell-based, human; details: Homo sapiens
TK-10 = experiment: NCI-60 growth inhibition: TK-10 (Renal Cancer); type: cell-based, human; details: Homo sapiens
UO-31 = experiment: NCI-60 growth inhibition: UO-31 (Renal Cancer); type: cell-based, human; details: Homo sapiens
PC-3 = experiment: NCI-60 growth inhibition: PC-3 (Prostate Cancer); type: cell-based, human; details: Homo sapiens
DU-145 = experiment: NCI-60 growth inhibition: DU-145 (Prostate Cancer); type: cell-based, human; details: Homo sapiens
MCF7 = experiment: NCI-60 growth inhibition: MCF7 (Breast Cancer); type: cell-based, human; details: Homo sapiens
MDA-MB-231/ATCC = experiment: NCI-60 growth inhibition: MDA-MB-231/ATCC (Breast Cancer); type: cell-based, human; details: Homo sapiens
HS 578T = experiment: NCI-60 growth inhibition: HS 578T (Breast Cancer); type: cell-based, human; details: Homo sapiens
BT-549 = experiment: NCI-60 growth inhibition: BT-549 (Breast Cancer); type: cell-based, human; details: Homo sapiens
T-47D = experiment: NCI-60 growth inhibition: T-47D (Breast Cancer); type: cell-based, human; details: Homo sapiens, T47D
MDA-MB-468 = experiment: NCI-60 growth inhibition: MDA-MB-468 (Breast Cancer); type: cell-based, human; details: Homo sapiens
[1] = test system: MV4-11 cell line (myelomonocytic leukemia); details: MV4-11 cells; for LD50, 7AAD (μM) 24 h / LD50, Alamar blue (μM) 24 h / LD50, YOPRO (μM) 24 h: MMB-TDZD analogs (Table 2); for LD50: values in text
HCT-116 = experiment: NCI-60 growth inhibition: HCT-116 (Colon Cancer); details: Homo sapiens, HCT-116
NCI-H522 = experiment: NCI-60 growth inhibition: NCI-H522 (Non-Small-Cell Lung Cancer); details: Homo sapiens, NCI-H522
HL-60(TB) = experiment: NCI-60 growth inhibition: HL-60(TB) (Leukemia); type: cell-based, human; details: Homo sapiens, HL-60
SR = experiment: NCI-60 growth inhibition: SR (Leukemia); type: cell-based, human; details: Homo sapiens
U251 = experiment: NCI-60 growth inhibition: U251 (CNS Cancer); type: cell-based, human; details: Homo sapiens, U-251
[2] = test system: human leukemia cell lines; experiment: NCI-60 growth inhibition, leukemia cell lines

C=C1C(=O)O[C@H]2[C@H]1CC/C(COC(=O)NCc1ccc(Cn3c(=O)sn(-c4ccccc4)c3=O)cc1)=C\CC[C@@]1(C)O[C@@H]21 [BSK-197]
GI50 (CCRF-CEM): 830 nM
GI50 (K-562): 1800 nM
GI50 (MOLT-4): 2200 nM
GI50 (RPMI-8226): 2030 nM
GI50 (EKVX): 1850 nM
GI50 (HOP-92): 1820 nM
GI50 (NCI-H23): 3550 nM
GI50 (NCI-H460): 3670 nM
GI50 (COLO 205): 1770 nM
GI50 (HCT-15): 1940 nM
GI50 (HT29): 2150 nM
GI50 (SW-620): 1910 nM
GI50 (SF-268): 2210 nM
GI50 (SF-539): 1570 nM
GI50 (SNB-19): 4260 nM
GI50 (SNB-75): 2370 nM
GI50 (LOX IMVI): 1620 nM
GI50 (MALME-3M): 2090 nM
GI50 (M14): 1800 nM
GI50 (MDA-MB-435): 2070 nM
GI50 (SK-MEL-2): 2390 nM
GI50 (SK-MEL-28): 1700 nM
GI50 (SK-MEL-5): 3240 nM
GI50 (UACC-257): 1860 nM
GI50 (UACC-62): 2040 nM
GI50 (IGROV1): 2090 nM
GI50 (OVCAR-3): 1680 nM
GI50 (OVCAR-4): 2740 nM
GI50 (OVCAR-5): 2510 nM
GI50 (OVCAR-8): 2830 nM
GI50 (786-0): 1810 nM
GI50 (A498): 3910 nM
GI50 (ACHN): 1640 nM
GI50 (CAKI-1): 2490 nM
GI50 (RXF 393): 1750 nM
GI50 (SN12C): 2130 nM
GI50 (TK-10): 2210 nM
GI50 (UO-31): 1680 nM
GI50 (PC-3): 2360 nM
GI50 (DU-145): 1710 nM
GI50 (MCF7): 1590 nM
GI50 (MDA-MB-231/ATCC): 1710 nM
GI50 (HS 578T): 4140 nM
GI50 (BT-549): 2140 nM
GI50 (T-47D): 1980 nM
GI50 (MDA-MB-468; MDA-MB-468): 1170 nM
LD50, 7AAD (μM) 24 h [1]: 1.26 µM
LD50, Alamar blue (μM) 24 h [1]: 2.02 µM
LD50, YOPRO (μM) 24 h [1]: 1.17 µM
LD50 [1]: 980 nM
GI50 (HCT-116): 1520 nM
GI50 (NCI-H522): 1740 nM

C=C1C(=O)O[C@H]2[C@H]1CC/C(COC(=O)NCc1ccc(Cn3c(=O)sn(CCCI)c3=O)cc1)=C\CC[C@@]1(C)O[C@@H]21 [BSK-259]
GI50 (CCRF-CEM): 310 nM
GI50 (HL-60(TB)): 300 nM
GI50 (K-562): 340 nM
GI50 (MOLT-4): 290 nM
GI50 (RPMI-8226): 900 nM
GI50 (SR): 280 nM
GI50 (EKVX): 2090 nM
GI50 (HOP-92): 1220 nM
GI50 (NCI-H23): 2110 nM
GI50 (NCI-H460): 3200 nM
GI50 (COLO 205): 1950 nM
GI50 (HCT-15): 1890 nM
GI50 (HT29): 1740 nM
GI50 (SW-620): 1400 nM
GI50 (SF-268): 2540 nM
GI50 (SF-539): 1710 nM
GI50 (SNB-19): 3120 nM
GI50 (U251): 1750 nM
GI50 (LOX IMVI): 1400 nM
GI50 (MALME-3M): 1390 nM
GI50 (M14): 1740 nM
GI50 (MDA-MB-435): 1680 nM
GI50 (SK-MEL-2): 2420 nM
GI50 (SK-MEL-28): 1920 nM
GI50 (SK-MEL-5): 1910 nM
GI50 (UACC-257): 1790 nM
GI50 (UACC-62): 1410 nM
GI50 (IGROV1): 1750 nM
GI50 (OVCAR-3): 1190 nM
GI50 (OVCAR-4): 1460 nM
GI50 (OVCAR-5): 1850 nM
GI50 (OVCAR-8): 3040 nM
GI50 (786-0): 1680 nM
GI50 (A498): 4850 nM
GI50 (ACHN): 1700 nM
GI50 (CAKI-1): 1700 nM
GI50 (RXF 393): 1520 nM
GI50 (SN12C): 1570 nM
GI50 (TK-10): 1710 nM
GI50 (UO-31): 1520 nM
GI50 (PC-3): 1940 nM
GI50 (DU-145): 1730 nM
GI50 (MCF7): 1410 nM
GI50 (MDA-MB-231/ATCC): 1750 nM
GI50 (HS 578T): 3170 nM
GI50 (BT-549): 1380 nM
GI50 (T-47D): 1790 nM
GI50 (MDA-MB-468; MDA-MB-468 (Breast Cancer), read-out: GI50): 1540 nM
fold more cytotoxic than PTL [1]: 273 fold
fold more cytotoxic than TDZD-8 [1]: 329 fold
LD50, 7AAD (μM) 24 h [1]: 0.01 µM
LD50, Alamar blue (μM) 24 h [1]: 0.30 µM
LD50, YOPRO (μM) 24 h [1]: 0.01 µM
LD50 [1]: 10 nM
GI50 (HCT-116): 1050 nM
GI50 ([2]; Homo sapiens): 280 to 900 nM
potency against leukemia cell lines (GI50 <1.0) ([2]; NCI panel): high potency against all 6 leukemia cell lines
GI50 (NCI-H522): 1070 nM
